# From US12187709B2 (Genentech, Inc., priority 2021, dated 2025)
# Columns and labels:
# [1] = molecular target: Cbl-b (Homo sapiens (Human), UniProt Q13191); test: Cbl-b LCK Ub TR-FRET assay (Cbl-b Lck HTRF); format: biochemical; details: for IC50: Cbl-b LCK Ub TR-FRET; for fold-selectivity (Cbl-b over C-cbl): ratio C-cbl Lck HTRF IC50 / Cbl-b Lck HTRF IC50
# Method in brief: (§1)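 Detection reagents added, brief spin, 20 min RT. IC50 fit normalized to no-LCK (low) and DMSO (high) controls.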
# [2] = molecular target: c-Cbl (Homo sapiens (Human), UniProt P22681); test: C-Cbl LCK Ub TR-FRET assay (C-cbl Lck HTRF); format: biochemical
# Sequence of c-Cbl (P22681 47-435): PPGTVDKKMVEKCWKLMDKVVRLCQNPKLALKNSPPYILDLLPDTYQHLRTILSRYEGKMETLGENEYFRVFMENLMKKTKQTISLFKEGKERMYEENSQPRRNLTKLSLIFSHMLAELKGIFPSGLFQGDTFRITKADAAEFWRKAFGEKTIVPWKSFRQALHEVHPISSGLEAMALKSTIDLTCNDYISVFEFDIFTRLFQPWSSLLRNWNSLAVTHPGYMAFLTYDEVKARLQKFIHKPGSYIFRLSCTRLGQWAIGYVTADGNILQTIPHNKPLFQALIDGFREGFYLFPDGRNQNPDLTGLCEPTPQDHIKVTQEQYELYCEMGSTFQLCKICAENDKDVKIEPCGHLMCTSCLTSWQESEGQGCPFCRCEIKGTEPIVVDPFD
# Method in brief: as §1
# Sequence of Cbl-b (Q13191 40-426): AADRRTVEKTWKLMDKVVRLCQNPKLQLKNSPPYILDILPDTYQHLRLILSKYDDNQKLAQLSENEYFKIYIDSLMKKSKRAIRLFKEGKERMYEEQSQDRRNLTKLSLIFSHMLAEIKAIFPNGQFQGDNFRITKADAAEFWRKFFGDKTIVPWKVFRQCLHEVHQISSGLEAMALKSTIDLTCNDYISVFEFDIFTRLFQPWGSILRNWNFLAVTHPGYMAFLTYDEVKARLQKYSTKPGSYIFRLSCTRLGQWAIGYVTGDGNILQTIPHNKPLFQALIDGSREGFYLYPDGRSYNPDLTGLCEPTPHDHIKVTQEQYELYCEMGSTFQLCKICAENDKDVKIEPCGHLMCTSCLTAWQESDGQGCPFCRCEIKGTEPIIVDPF
IC50 [1] [nM],fold-selectivity (Cbl-b over C-cbl) [1],IC50 [2] [nM],SMILES
110,(0.73x),80,"Cc1cc(C2(c3nncn3C)CC(F)(F)C2)cc(N2Cc3c(cc(CNC4(C)CCC4)cc3C(F)(F)F)C2=O)n1 [Compound 60, 2-(4-(3,3-difluoro-1-(4-methyl-4H-1,2,4-triazol-3-yl)cyclobutyl)-6-methylpyridin-2-yl)-6-(((1-methylcyclobutyl)amino)methyl)-4-(trifluoromethyl)isoindolin-1-one]"
6.4,(1.0x),6.4,"CCOc1cc([C@]2(c3nncn3C)C[C@@H](OC)C2)cc(N2Cc3c(cc(CNC4(C)CCC4)cc3C(F)(F)F)C2=O)n1 [Compound 76, 2-(6-ethoxy-4-((1S,3S)-3-methoxy-1-(4-methyl-4H-1,2,4-triazol-3-yl)cyclobutyl)pyridin-2-yl)-6-(((1-methylcyclobutyl)amino)methyl)-4-(trifluoromethyl)isoindolin-1-one]"
8.2,(1.0x),8.2,"CCOc1cc([C@]2(c3nncn3C)C[C@H](OC)C2)cc(N2Cc3c(cc(CNC4(C)CCC4)cc3C(F)(F)F)C2=O)n1 [Compound 77, 2-(6-ethoxy-4-((1R,3R)-3-methoxy-1-(4-methyl-4H-1,2,4-triazol-3-yl)cyclobutyl)pyridin-2-yl)-6-(((1-methylcyclobutyl)amino)methyl)-4-(trifluoromethyl)isoindolin-1-one]"
14,(5.0x),70,"CO[C@H]1C[C@@](c2cc(OC3CCCC3)nc(N3Cc4c(cc(CNC5(C)CCC5)cc4C(F)(F)F)C3=O)c2)(c2nncn2C)C1 [Compound 78, 2-(6-(cyclopentyloxy)-4-((1S,3S)-3-methoxy-1-(4-methyl-4H-1,2,4-triazol-3-yl)cyclobutyl)pyriidn-2-yl)-6-(((1-methylcyclobutyl)amino)methyl)-4-(trifluoromethyl)isoindolin-1-one]"
32,(7.4x),237,"CO[C@H]1C[C@](c2cc(OC3CCCC3)nc(N3Cc4c(cc(CNC5(C)CCC5)cc4C(F)(F)F)C3=O)c2)(c2nncn2C)C1 [Compound 79, 2-(6-(cyclopentyloxy)-4-((1R,3R)-3-methoxy-1-(4-methyl-4H-1,2,4-triazol-3-yl)cyclobutyl)pyridin-2-yl)-6-(((1-methylcyclobutyl)amino)methyl)-4-(trifluoromethyl)isoindolin-1-one]"
13,2.2x,29,"Cn1cnnc1C1(c2cccc(N3Cc4c(cc(CNC5(C)CCC5)cc4C(F)(F)F)C3=O)c2)CC2(CC(=O)C2)C1 [Compound 92, 2-(3-(2-(4-methyl-4H-1,2,4-triazol-3-yl)-6-oxospiro[3.3]heptan-2-yl)phenyl)-6-(((1-methylcyclobutyl)amino)methyl)-4-(trifluoromethyl)isoindolin-1-one]"
120,7.3x,900,"Cn1cnnc1C1(c2cccc(N3Cc4c(cc(CNC5(C)CCC5)cc4C(F)(F)F)C3=O)c2)CC2(CC(O)C2)C1 (stereo not drawn) [Compound 93, 2-(3-(6-hydroxy-2-(4-methyl-4H-1,2,4-triazol-3-yl)spiro[3.3]heptan-2-yl)phenyl)-6-(((1-methylcyclobutyl)amino)methyl)-4-(trifluoromethyl)isoindolin-1-one]"
5200,3.1x,16000,"CC(=O)N1CC2(C1)CC(c1cccc(N3Cc4c(cc(CNC5(C)CCC5)cc4C(F)(F)F)C3=O)c1)(c1nncn1C)C2 [Compound 97, 2-(3-(2-acetyl-6-(4-methyl-4H-1,2,4-triazol-3-yl)-2-azaspiro[3.3]heptan-6-yl)phenyl)-6-(((1-methylcyclobutyl)amino)methyl)-4-(trifluoromethyl)isoindolin-1-one]"
1300,5.8x,7500,"Cn1cnnc1C1(c2cccc(N3Cc4c(cc(CNC5(C)CCC5)cc4C(F)(F)F)C3=O)c2)CC2(CN(S(C)(=O)=O)C2)C1 [Compound 98, 2-(3-(6-(4-methyl-4H-1,2,4-triazol-3-yl)-2-(methylsulfonyl)-2-azaspiro[3.3]heptan-6-yl)phenyl)-6-(((1-methylcyclobutyl)amino)methyl)-4-(trifluoromethyl)isoindolin-1-one]"
15,3.7x,54,"Cn1cnnc1[C@]1(c2cccc(N3Cc4c(cc(CNC5(C)CCC5)cc4C(F)(F)F)C3=O)c2)C[C@](F)(CF)C1 [Compound 105, 2-(3-((1r,3r)-3-fluoro-3-(fluoromethyl)-1-(4-methyl-4H-1,2,4-triazol-3-yl)cyclobutyl)phenyl)-6-(((1-methylcyclobutyl)amino)methyl)-4-(trifluoromethyl)isoindolin-1-one]"
11000,1.7x,20000,"Cn1cnnc1[C@H](c1cccc(N2Cc3c(cc(CNC4(C)CCC4)cc3C(F)(F)F)C2=O)c1)C1CC2(COC2)C1 [Compound 121, (S)-2-(3-((4-methyl-4H-1,2,4-triazol-3-yl)(2-oxaspiro[3.3]heptan-6-yl)methyl)phenyl)-6-(((1-methylcyclobutyl)amino)methyl)-4-(trifluoromethyl)isoindolin-1-one]"
1400,1.6x,2100,"Cn1cnnc1[C@@H](c1cccc(N2Cc3c(cc(CNC4(C)CCC4)cc3C(F)(F)F)C2=O)c1)C1CC2(COC2)C1 [Compound 122, (R)-2-(3-((4-methyl-4H-1,2,4-triazol-3-yl)(2-oxaspiro[3.3]heptan-6-yl)methyl)phenyl)-6-(((1-methylcyclobutyl)amino)methyl)-4-(trifluoromethyl)isoindolin-1-one]"
23,1.5x,34,"Cn1cnnc1[C@@H](c1cccc(N2Cc3c(cc(CNC4(C)CCC4)cc3C(F)(F)F)C2=O)c1)[C@@H]1CCOC1 [Compound 168, 2-(3-((R)-(4-methyl-4H-1,2,4-triazol-3-yl)((S)-tetrahydrofuran-3-yl)methyl)phenyl)-6-(((1-methylcyclobutyl)amino)methyl)-4-(trifluoromethyl)isoindolin-1-one]"
5700,1.7x,9700,"Cn1cnnc1C1(c2cccc(N3Cc4c(cccc4C(F)(F)F)C3=O)c2)CC2(COC2)C1 [Compound 191, 2-(3-(6-(4-methyl-4H-1,2,4-triazol-3-yl)-2-oxaspiro[3.3]heptan-6-yl)phenyl)-4-(trifluoromethyl)isoindolin-1-one]"
15000,1.4x,20000,"Cn1cnnc1C1(c2cccc(N3Cc4c(cc(CNC5(C)CCC5)cc4C(F)(F)F)C3=O)c2)CC2(CN(C3COC3)C2)C1 [Compound 199, 2-(3-(6-(4-methyl-4H-1,2,4-triazol-3-yl)-2-(oxetan-3-yl)-2-azaspiro[3.3]heptan-6-yl)phenyl)-6-(((1-methylcyclobutyl)amino)methyl)-4-(trifluoromethyl)isoindolin-1-one]"
340,1.2x,390,"CO[C@H]1C[C@@](c2cc(C)cc(N3Cc4c(cc(CNC5(C)CCC5)cc4C(F)(F)F)C3=O)c2)(c2nncn2C)C1 [Compound 237, 2-(3-((1s,3s)-3-methoxy-1-(4-methyl-4H-1,2,4-triazol-3-yl)cyclobutyl)-5-methylphenyl)-6-(((1-methylcyclobutyl)amino)methyl)-4-(trifluoromethyl)isoindolin-1-one]"
3100,1.2x,3600,"Cn1cnnc1[C@@H](CC1COC1)c1cccc(N2Cc3c(cc(CNC4(C)CCC4)cc3C(F)(F)F)C2=O)c1 [Compound 244, (S)-2-(3-(1-(4-methyl-4H-1,2,4-triazol-3-yl)-2-(oxetan-3-yl)ethyl)phenyl)-6-(((1-methylcyclobutyl)amino)methyl)-4-(trifluoromethyl)isoindolin-1-one]"
49,2.2x,110,"Cn1cnnc1[C@H](CC1COC1)c1cccc(N2Cc3c(cc(CNC4(C)CCC4)cc3C(F)(F)F)C2=O)c1 [Compound 245, (R)-2-(3-(1-(4-methyl-4H-1,2,4-triazol-3-yl)-2-(oxetan-3-yl)ethyl)phenyl)-6-(((1-methylcyclobutyl)amino)methyl)-4-(trifluoromethyl)isoindolin-1-one]"
1400,1.6x,2100,"Cn1cnnc1[C@@H](CC1CCCC1)c1cccc(N2Cc3c(cc(CNC4(C)CCC4)cc3C(F)(F)F)C2=O)c1 [Compound 248, (S)-2-(3-(2-cyclopentyl-1-(4-methyl-4H-1,2,4-triazol-3-yl)ethyl)phenyl)-6-(((1-methylcyclobutyl)amino)methyl)-4-(trifluoromethyl)isoindolin-1-one]"
3100,1.2x,3600,"Cn1cnnc1[C@@H](c1cccc(N2Cc3c(cc(CNC4(C)CCC4)cc3C(F)(F)F)C2=O)c1)C1CCCCC1 [Compound 250, (R)-2-(3-(cyclohexyl(4-methyl-4H-1,2,4-triazol-3-yl)methyl)phenyl)-6-(((1-methylcyclobutyl)amino)methyl)-4-(trifluoromethyl)isoindolin-1-one]"
120,1.1x,140,"Cn1cnnc1[C@@H](CC1CCOCC1)c1cccc(N2Cc3c(cc(CNC4(C)CCC4)cc3C(F)(F)F)C2=O)c1 [Compound 253, (S)-2-(3-(1-(4-methyl-4H-1,2,4-triazol-3-yl)-2-(tetrahydro-2H-pyran-4-yl)ethyl)phenyl)-6-(((1-methylcyclobutyl)amino)methyl)-4-(trifluoromethyl)isoindolin-1-one]"
